In patent US10865194B2, “Therapeutically active bicyclic-sulphonamides and pharmaceutical compositions” (FONDAZIONE ISTITUTO ITALIANO DI TECNOLOGIA, priority 2017, dated 2020):
Like-named read-outs stand apart in the source and are kept apart here.

Legend:
Neuro2A cells = assay: Inhibition of ROS production in Neuro2A cells (H2O2-induced, DCFH-DA fluorescence); format: cell-based; conditions: for Inhibition of ROS production in neuro 2A cells, 5 μM (inhibition) / inhibition at 5 µM: compound 5 μM; for Inhibition of ROS production in neuro 2A cells, 10 μM (inhibition) / inhibition at 10 µM: compound 10 μM; for inhibition at 5 µM / inhibition at 10 µM: Mus musculus, N2a; for inhibition at 5 µM: ROS induced with 0.2 mM H2O2, read-out: Inhibition of ROS production in neuro 2A cells, 5 μM (inhibition); for inhibition at 10 µM: ROS induced with 0.2 mM H2O2, read-out: Inhibition of ROS production in neuro 2A cells, 10 μM (inhibition)
Experimental: The experiments carried out to evaluate the inhibition of ROS production using the compounds of the invention were based on the method reported by Danli W. and Patricia Yotnda in Production and Detection of Reactive Oxygen Species (ROS) in Cancers, J. Vis Exp. 2011; (57):3357.
Cultured brain Neuroblastoma2A (Neuro2A) were used.
15.000 Cells were plated in a 96 well plate with black walls and transparent flat bottom in 100 μL of DMEM complete medium (including 10% fetal bovine serum, […] L-Glutamine) containing compounds at indicated concentrations or 0.5% dimethylsulfoxide (DMSO), and kept overnight at 37° C. to allow them to attach to the plate. The following day the culture medium was removed, cells were washed with 100 μl of Phosphate Buffer Saline, pH 7.4 (PBS) and loaded with 100 μL of PBS containing 10 μM of dichloro-dihydro-fluorescein diacetate (DCFH-DA) and compounds at the indicated concentrations (or DMSO 0.5%) for additional 45 min at 37° C. DCFH-DA was prepared as a 20 mM stock in (DMSO) and kept in the dark at 4° C.
ROS production was induced by exposure with 0.2 mM H2O2 dissolved in 100 μl of complete DMEM medium without phenol red. Fluorescence intensity was measured at an […] wavelengths of 485/535 nm and ROS production was monitored for 2 h, at 37° C.

human NAAA = target: T1, human NAAA (Homo sapiens, UniProt Q02083); assay: In vitro human NAAA fluorogenic assay; format: biochemical; conditions: enzyme-enriched lysate of HEK-293 cells stably transfected with human NAAA
T1 construct: expressed in transfected cells; host or cells: HEK-293 (stably transfected, G418 selection); enzyme-enriched lysate
T1 sequence (Q02083 126-359 limits assumed): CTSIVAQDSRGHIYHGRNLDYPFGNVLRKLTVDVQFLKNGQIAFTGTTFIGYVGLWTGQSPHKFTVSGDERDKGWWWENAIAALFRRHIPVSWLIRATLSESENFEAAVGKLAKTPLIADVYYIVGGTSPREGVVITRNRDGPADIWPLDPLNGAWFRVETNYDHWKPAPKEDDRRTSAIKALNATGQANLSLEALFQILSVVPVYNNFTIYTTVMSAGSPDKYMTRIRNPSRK
T1 sequence (Q02083 29-125 limits assumed): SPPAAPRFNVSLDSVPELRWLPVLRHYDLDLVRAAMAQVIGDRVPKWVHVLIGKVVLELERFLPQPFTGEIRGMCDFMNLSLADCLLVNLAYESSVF
Experimental: Human recombinant proteins were obtained from HEK-293 stable overexpressing NAAA cell lines. Cells were grown in Dulbecco's modified Eagle medium (DMEM) containing 10% FBS, 1% penicillin/streptomycin, 1% glutamine and 500 μg/mL G418. To obtain membrane preparation cells were scraped off with cold phosphate-buffered saline (PBS) and collected by centrifugation (300×g, 7 min, 4° C.). Cell pellet were stored at −80° C. until protein preparation.
In Vitro Human NAAA Assay
Preparation of Enzyme-Enriched Lysate (h-NAAA).
HEK-293 cells stably transfected with the human NAAA coding sequences were used as enzyme source. Cell pellets were suspended in 20 mM Tris HCl (pH 7.4) with 0.32 M sucrose, sonicated and centrifuged at 800×g for 30 min at 4° C. Supernatants were then ultracentrifuged at 12,000×g for 30 min at 4° C. Pellets were re-suspended in PBS buffer (pH 7.4) and subjected to three freeze-thaw cycles at −80° C. The suspension was finally ultracentrifuged at 105,000×g for 1 h at 4° C., supematants were collected, protein concentration was measured and samples aliquoted and stored at −80° C. until use.
The results are summarized in Table 3 as follows, wherein +: IC50>2 μM; ++: 1.0 μM<IC50<2 μM; +++: IC50<1 μM: […]

[1] = Activity h-NAAA Fluorogenic assay
[2] = read-out: Activity h-NAAA Fluorogenic assay

Structure (SMILES) | IC50 (human NAAA; [2]) | also measured
CCCCc1ccc(OC2CC3CCC(C2)N3S(=O)(=O)c2c(C)n[nH]c2C)cc1 [Example 03, (1R,3s,5S)-3-(4-Butylphenoxy)-8-[(3,5-dimethyl-1H-pyrazol-4-yl)sulfonyl]-8-azabicyclo[3.2.1]octane] |  | Inhibition of ROS production in neuro 2A cells, 5 μM (inhibition) (Neuro2A cells; ROS induced with 0.2 mM H2O2): 39%; Inhibition of ROS production in neuro 2A cells, 10 μM (inhibition) (Neuro2A cells; ROS induced with 0.2 mM H2O2): 136%; IC50 (human NAAA; [1]): > 2 µM
CCCCc1ccc(OC2CC3CCC(C2)N3S(=O)(=O)c2c(C)n[nH]c2C)cc1 [Example 54, (1R,3r,5S)-3-(4-Butylphenoxy)-8-[(3,5-dimethyl-1H-pyrazol-4-yl)sulfonyl]-8-azabicyclo[3.2.1]octane] |  | Inhibition of ROS production in neuro 2A cells, 5 μM (inhibition) (Neuro2A cells; ROS induced with 0.2 mM H2O2): 17%; Inhibition of ROS production in neuro 2A cells, 10 μM (inhibition) (Neuro2A cells; ROS induced with 0.2 mM H2O2): 114%; IC50 (human NAAA; [1]): < 1 µM
O=C(/C=C/c1ccc(O)c2c1[C@H](C(=O)O[C@H](Cc1ccc(O)c(O)c1)C(=O)O)[C@@H](c1ccc(O)c(O)c1)O2)O[C@H](Cc1ccc(O)c(O)c1)C(=O)O [Salvianolic Acid B, Salvianolic acid B, reference compound] |  | Inhibition of ROS production in neuro 2A cells (inhibition), reference at 100 μM (Neuro2A cells; reference compound 100 μM, ROS induced with 0.2 mM H2O2): 100%
CCCCc1cnc(OC2CC3CCC(C2)N3S(=O)(=O)c2c(C)n[nH]c2C)cn1 [Example 40, (1R,3r,5S)-8-[(3,5-Dimethyl-1H-pyrazol-4-yl)sulfonyl]-3-[5-butylpyrazin-2-yl]oxy-8-azabicyclo[3.2.1]octane] | < 1 µM | inhibition at 5 µM (Neuro2A cells): 19%; inhibition at 10 µM (Neuro2A cells): 86%
Cc1n[nH]c(C)c1S(=O)(=O)N1C[C@H]2CCC[C@@H](C1)[C@H]2Oc1cnccn1 [Example 51, (1R,5S,9r)-3-((3,5-Dimethyl-1H-pyrazol-4-yl)sulfonyl)-9-(pyrazin-2-yloxy)-3-azabicyclo[3.3.1]nonane] | > 2 µM | Inhibition of ROS production in neuro 2A cells, 5 μM (inhibition) (Neuro2A cells; ROS induced with 0.2 mM H2O2): 0%; Inhibition of ROS production in neuro 2A cells, 10 μM (inhibition) (Neuro2A cells; ROS induced with 0.2 mM H2O2): 21%
Cc1n[nH]c(C)c1S(=O)(=O)N1C2CCC1CC(Oc1ccc(C#N)cc1)C2 [Example 09, (1R,3s,5S)-3-(4-Cyanophenoxy)-8-[(3,5-dimethyl-1H-pyrazol-4-yl)sulfonyl]-8-azabicyclo[3.2.1]octane] | > 2 µM | Inhibition of ROS production in neuro 2A cells, 5 μM (inhibition) (Neuro2A cells; ROS induced with 0.2 mM H2O2): 35%; Inhibition of ROS production in neuro 2A cells, 10 μM (inhibition) (Neuro2A cells; ROS induced with 0.2 mM H2O2): 56%
Cc1n[nH]c(C)c1S(=O)(=O)N1C2CCC1CC(Oc1ccc(C#N)cc1)C2 [Example 08, (1R,3r,5S)-3-(4-Cyanophenoxy)-8-[(3,5-dimethyl-1H-pyrazol-4-yl)sulfonyl]-8-azabicyclo[3.2.1]octane] | < 1 µM | Inhibition of ROS production in neuro 2A cells, 5 μM (inhibition) (Neuro2A cells; ROS induced with 0.2 mM H2O2): 0%; Inhibition of ROS production in neuro 2A cells, 10 μM (inhibition) (Neuro2A cells; ROS induced with 0.2 mM H2O2): 77%
CCCCc1ccc(OC2CC3CCC(C2)N3S(=O)(=O)c2c(C)noc2C)cc1 [Example 15, 4-[[(1R,3r,5S)-3-(4-Butylphenoxy)-8-azabicyclo[3.2.1]octan-8-yl]sulfonyl]-3,5-dimethyl-isoxazole] | > 2 µM | inhibition at 5 µM (Neuro2A cells): 0%; inhibition at 10 µM (Neuro2A cells): 84%
CCOCc1ccc(OC2CC3CCC(C2)N3S(=O)(=O)c2c(C)n[nH]c2C)cc1 [Example 35, (1R,3r,5S)-3-(4-Ethoxymethyl-phenoxy)-8-[(3,5-dimethyl-1H-pyrazol-4-yl)sulfonyl]-8-azabicyclo[3.2.1]octane] | < 1 µM | 
Cc1cnc(OC2CC3CCC(C2)N3S(=O)(=O)c2c(C)n[nH]c2C)cn1 [Example 36, (1R,3r,5S)-8-[(3,5-Dimethyl-1H-pyrazol-4-yl)sulfonyl]-3-(5-methylpyrazin-2-yl)oxy-8-azabicyclo[3.2.1]octane] | < 1 µM | 
Cc1n[nH]c(C)c1S(=O)(=O)N1C2CCC1CC(Oc1ccc(CCC(C)C)cc1)C2 [Example 33, (1R,3r,5S)-3-[4-Isopentyl-phenoxy]-8-[(3,5-dimethyl-1H-pyrazol-4-yl)sulfonyl]-8-azabicyclo[3.2.1]octane] | < 1 µM | 
CCCCc1ccc(OC2CC3CCC(C2)N3S(=O)(=O)c2c(C)nn(C)c2C)cc1 [Example 14, (1R,3r,5S)-3-(4-Butylphenoxy)-8-(1,3,5-trimethylpyrazol-4-yl)sulfonyl-8-azabicyclo[3.2.1]octane] | < 1 µM | 
Cc1ccc(OC2CC3CCC(C2)N3S(=O)(=O)c2c(C)n[nH]c2C)cc1 [Example 10, (1R,3s,5S)-3-(4-methylphenoxy)-8-[(3,5-dimethyl-1H-pyrazol-4-yl)sulfonyl]-8-azabicyclo[3.2.1]octane] | > 2 µM | 
Cc1n[nH]c(C)c1S(=O)(=O)N1C2CCC1CC(Oc1ccc(C(F)(F)F)cc1)C2 [Example 29, (1R,3r,5S)-3-(4-Trifluoromethyl-phenoxy)-8-[(3,5-dimethyl-1H-pyrazol-4-yl)sulfonyl]-8-azabicyclo[3.2.1]octane] | < 1 µM | 
Cc1n[nH]c(C)c1S(=O)(=O)N1C2CCC1CC(Oc1cccnn1)C2 [Example 37, (1R,3r,5S)-8-[(3,5-Dimethyl-1H-pyrazol-4-yl)sulfonyl]-3-pyridazin-3-yloxy-8-azabicyclo[3.2.1]octane] | > 2 µM | 
Cc1n[nH]c(C)c1S(=O)(=O)N1C[C@H]2COC[C@@H](C1)C2Oc1cnccn1 (stereo partly drawn) [Example 49, (1R,5S,9s)-7-((3,5-Dimethyl-1H-pyrazol-4-yl)sulfonyl)-9-(pyrazin-2-yloxy)-3-oxa-7-azabicyclo[3.3.1]nonane] | > 2 µM | 
Cc1n[nH]c(C)c1S(=O)(=O)N1C2CCC1CC(Oc1ccccc1)C2 [Example 01, (1R,3s,5S)-8-[(3,5-Dimethyl-1H-pyrazol-4-yl)sulfonyl]-3-phenoxy-8-azabicyclo[3.2.1]octane] | < 1 µM | 
Cc1n[nH]c(C)c1S(=O)(=O)N1C[C@H]2CCC[C@@H](C1)[C@@H]2Oc1cnccn1 [Example 52, (1R,5S,9s)-3-((3,5-Dimethyl-1H-pyrazol-4-yl)sulfonyl)-9-(pyrazin-2-yloxy)-3-azabicyclo[3.3.1]nonane] | < 1 µM | Inhibition of ROS production in neuro 2A cells, 5 μM (inhibition) (Neuro2A cells; ROS induced with 0.2 mM H2O2): 9%; Inhibition of ROS production in neuro 2A cells, 10 μM (inhibition) (Neuro2A cells; ROS induced with 0.2 mM H2O2): 27%
Cc1cccc(OC2CC3CCC(C2)N3S(=O)(=O)c2c(C)n[nH]c2C)c1 [Example 05, (1R,3s,5S)-3-(3-Methylphenoxy)-8-[(3,5-dimethyl-1H-pyrazol-4-yl)sulfonyl]-8-azabicyclo[3.2.1]octane] | > 2 µM | 
CCOCc1cnc(OC2CC3CCC(C2)N3S(=O)(=O)c2c(C)n[nH]c2C)cn1 [Example 41, (1R,3r,5S)-8-[(3,5-Dimethyl-1H-pyrazol-4-yl)sulfonyl]-3-[5-(ethoxymethyl)pyrazin-2-yl]oxy-8-azabicyclo[3.2.1]octane] | < 1 µM | 
Cc1cccc(OC2CC3CCC(C2)N3S(=O)(=O)c2c(C)n[nH]c2C)c1 [Example 04, (1R,3r,5S)-3-(3-Methylphenoxy)-8-[(3,5-dimethyl-1H-pyrazol-4-yl)sulfonyl]-8-azabicyclo[3.2.1]octane] | < 1 µM | 
Cc1n[nH]c(C)c1S(=O)(=O)N1C[C@H]2CC[C@@H](C1)C2Oc1cnccn1 (stereo partly drawn) [Example 50, (1R,5S,8r)-3-((3,5-Dimethyl-1H-pyrazol-4-yl)sulfonyl)-8-(pyrazin-2-yloxy)-3-azabicyclo[3.2.1]octane] | > 2 µM | 
Cc1ccc(OC2CC3CCC(C2)N3S(=O)(=O)c2c(C)n[nH]c2C)c(F)c1 [Example 21, (1R,3r,5S)-3-(2-Fluoro-4-methylphenoxy)-8-[(3,5-dimethyl-1H-pyrazol-4-yl)sulfonyl]-8-azabicyclo[3.2.1]octane] | < 1 µM | 
